In brackets after ≈: the same amount, converted by molar mass.
Key:
E. coli EnvZ = molecular target: T1, E. coli EnvZ (Escherichia coli, UniProt P0AEJ4); test: HK autophosphorylation inhibition, EnvZ; type: biochemical
T1 construct: Cytoplasmic domains from S. aureus PhoR and E. coli EnvZ; His6; made in house; host or cells: E. coli RIL
Method: Cytoplasmic domains from S. aureus PhoR and E. coli EnvZ as well the CA domain of Thermotoga maritima CheA were cloned in pNIC28-Bsa4 ([54]) plasmid containing His6-tag expressed in E. coli RIL and purified as previously described ([21], [55], [56]) using His-affinity and size exclusion chromatography. Briefly, E. coli RIL strains carrying the appropriate plasmid were grown in 1 L Luria broth (LB) (Merck Millipore) supplemented with kanamycin (100 µg/mL) with shaking (200 r.p.m.) at 37°C. When OD600 reached 0.5, 1 mM isopropyl-ß-D-1-thiogalactopyranoside (IPTG) was added to induce protein expression and cells were grown for 3 more hours. Cells were harvested by centrifugation (4,000 g, 4°C), resuspended in 40 mL buffer A (50 mM Tris-HCl pH 8.0, 0.5 M NaCl, 10% glycerol, and 1 mM phenylmethanesulfonyl fluoride), sonicated (4°C, 5 min with pulses of 15 sec at intervals of 1 min), and centrifuged (11,000 g, 4°C, 60 min). Supernatant was passed through a 5-mL HisTrap HP column (GE Healthcare) equilibrated in buffer A using the AKTA system (GE Healthcare). His-column was washed with buffer A (80 mL), and a linear gradient of imidazole (range 0 to 0.25 M) in buffer A was applied. The purest fractions evaluated by SDS-PAGE were collected, concentrated by ultrafiltration in a Amicon Ultra-15 (10- or 30-kDa exclusion) (Merck Millipore), and further purified by gel filtration using Superdex 200 column (GE Healthcare), equilibrated in buffer B (50 mM TrisHCl, pH 8.0, 0.2 M NaCl, and 5% glycerol). Purified proteins were then concentrated using ultrafiltration and stored at −80°C.
Autophosphorylation inhibition assays were performed in kinase assay buffer [100 mM Tris-HCl (pH 8.0), 5 mM MgCl2, 10 mM DTT], containing 5 µg of purified HK and 10 mM ATP for 30 min at 25°C. The reaction was stopped by adding gel loading buffer containing 16% SDS before loading the reaction on a 12% SDS-PAGE. […] To detect autophosphorylation, the gel was transferred to a nitrocellulose membrane (GE Healthcare) at 100 V in the transfer buffer (25 mM Tris, 192 mM Glycine, 10% Methanol). The membrane was then blocked using Tris-buffered saline solution with 0.1% vol/vol Tween 20 (TBS-T) supplied with 5% bovine serum albumin. The phosphorylated histidine was detected by western blotting by then incubating the membrane for 60 min with 1:1,000 anti-N1-phosphohistidine antibody (Merck Millipore) in TBS-T followed by a washing step for 30 min with TBS-T and a final 60-min incubation with 1:10,000 horseradish […] anti-rabbit IgG (Promega) in TBS-T. Chemiluminescent reaction was measured using Pierce ECL immunoblotting substrate (Thermo Scientific) in a LAS 3000 image analyzer (Fujifilm Life Science, Tokyo, Japan) followed by densitometric analysis using Multi Gauge image-analysis software (Fujifilm Life Science, Tokyo, Japan). The inhibitor concentrations required to halve the chemiluminescence intensity (IC50) were determined using Prism 4.1 (GraphPad Software, San Diego, CA, USA).

[1] = test system: Enterococcus faecium vanA (strain E1654); test: MIC (microdilution) against E. faecium; type: cell-based; details: for MIC: Enterococcus faecium, read-out: MIC E. faecium; for MIC E. faecium: Table ST1
Summary of the method: (§1)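 EUCAST broth microdilution in Mueller-Hinton broth, twofold compound dilutions from 50 to 0.39 µg/mL, inoculum a 1:100 dilution of overnight culture. Incubated 18 h at 37°C; MIC taken as lowest concentration with no growth by OD600.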

[2] = test system: Staphylococcus aureus str. Newman; test: Minimal inhibitory concentration (microdilution) against S. aureus; type: cell-based; details: for MIC S. aureus: Table ST3
Summary of the method: as §1

S. aureus str. Newman = test: Membrane permeability using SYTOX-Green, flow cytometry; type: cell-based; details: for % FITC stained bacteria 0.5 xMIC: 0.5× MIC; for % FITC stained bacteria 2 xMIC: 2× MIC; for Membrane damage: if considered to cause membrane damage to S. aureus
Summary of the method: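 Exponential-phase cells (OD600 0.4) in MHB were exposed to compound, pelleted into PBS, and stained with 0.5 µM SYTOX Green for 5 min in the dark. After washing off unbound dye, uptake was read by flow cytometry in the FITC channel, 488 nm excitation. Nisin and novobiocin served as positive and negative permeabilization controls.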

[3] = bound from first screening at 2 mM
[4] = Staphylococcus aureus, NEWMAN, Fig 2
[5] = Staphylococcus aureus, NEWMAN, Fig 2, value in parentheses
[6] = Table ST3, value in parentheses

T1 sequence (P0AEJ4 180-450): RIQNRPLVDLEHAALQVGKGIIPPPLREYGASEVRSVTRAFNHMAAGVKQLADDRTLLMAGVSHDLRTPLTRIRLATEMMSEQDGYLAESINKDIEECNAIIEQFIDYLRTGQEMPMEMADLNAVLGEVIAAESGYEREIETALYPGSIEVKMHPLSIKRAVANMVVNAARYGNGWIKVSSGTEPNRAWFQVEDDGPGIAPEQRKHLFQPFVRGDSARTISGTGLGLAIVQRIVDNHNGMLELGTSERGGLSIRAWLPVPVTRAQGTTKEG

SMILES | IC50 (E. coli EnvZ; [3]) [µM] | MIC [1] [µg/mL] | MIC E. faecium [1] [µg/mL] | MIC [2, 4] [µg/mL] | MIC [2, 5] [µM] | MIC S. aureus [2] [µg/mL] | MIC [2, 6] [µM] | % FITC stained bacteria 0.5 xMIC (S. aureus str. Newman; 5 min exposure) [%] | % FITC stained bacteria 1 xMIC (S. aureus str. Newman; 1× MIC, 5 min exposure) [%] | % FITC stained bacteria 2 xMIC (S. aureus str. Newman; 5 min exposure) [%] | Membrane damage (S. aureus str. Newman) | IC50 (E. coli EnvZ; ± SD, n = 2, 10 mM ATP) [µM] | Loss of membrane integrity (S. aureus str. Newman; 1× MIC, 5 min exposure)
COc1ccc(-c2[nH]nc(C(F)(F)F)c2-c2ccccc2)c(O)c1 [DPP-2] | < 2000 | 25 (≈ 74.8 µM) | 25 (≈ 74.8 µM) | 12.5 | 37.3 | 12.50 (≈ 37.4 µM) | 37.3 | 49.81 | 54.03 | 63.56 | YES |  | 
Oc1ccc(-c2n[nH]c(C(F)(F)F)c2-c2ccc(Cl)cc2)c(O)c1 [DPP-5] |  | 12.5 (≈ 35.2 µM) | 12.5 (≈ 35.2 µM) | 3.12 | 8.79 | 3.12 (≈ 8.8 µM) | 8.79 | 13.40 | 13.42 | 41.29 | MILD | 117 ± 6.3 | did not cause significant loss of membrane integrity
COc1ccc(-c2[nH]nc(C(F)(F)F)c2-c2ccc(Cl)cc2)c(O)c1 [DPP-6] |  | 6.25 (≈ 16.9 µM) | 6.25 (≈ 16.9 µM) | 3.12 | 8.43 | 3.12 (≈ 8.46 µM) | 8.43 | 36.93 | 44.48 | 48.91 | YES | 98 ± 11.8 | 
CCOc1ccc(-c2[nH]nc(C(F)(F)F)c2-c2ccc(Cl)cc2)c(O)c1 [DPP-7] | < 2000 | 3.12 (≈ 8.15 µM) | 3.12 (≈ 8.15 µM) | 3.12 | 8.21 | 3.12 (≈ 8.15 µM) | 8.21 | 42.44 | 50.30 | 54.59 | YES |  | 
COc1ccc(-c2c(C(F)(F)F)n[nH]c2-c2ccc(O)cc2O)cc1 [DPP-12] |  | 50 (≈ 143 µM) | 50 (≈ 143 µM) | 12.5 | 35.7 | 12.50 (≈ 35.7 µM) | 35.71 | 9.04 | 24.16 | 29.11 | MILD | 427 ± 9.1 | 
COc1ccc(-c2c(C(F)(F)F)n[nH]c2-c2ccc(OC)cc2O)cc1 [DPP-13] |  | 25 (≈ 68.6 µM) | 25 (≈ 68.6 µM) | 12.5 | 34.3 | 12.50 (≈ 34.3 µM) | 34.34 | 35.10 | 45.40 | 45.44 | YES | 175 ± 10.1 | 

Source: paper PMC11302729, “Repurposing Hsp90 inhibitors as antimicrobials targeting two-component systems identifies compounds leading to loss of bacterial membrane integrity” (Microbiology Spectrum, 2024)
